{"source": "the NIST ThermoML archive (doi:10.1021/je0201976)", "conditions": "Liquid; for Critical pressure: Direct measurement; for Critical temperature: Visual observation in an unstirred cell", "note": "Numbers after ± are expanded uncertainties."}
{"compound": "FC(F)C(F)(F)OCC(F)(F)F", "note": "[2,2,2-trifluoroethyl 1,1,2,2-tetrafluoroethyl ether]", "values": [{"measurement": "vapor or sublimation pressure", "setting": "297.29 K", "result": "27.8 ± 1", "unit": "kPa"}, {"measurement": "vapor or sublimation pressure", "setting": "313.67 K", "result": "55.7 ± 1", "unit": "kPa"}, {"measurement": "vapor or sublimation pressure", "setting": "322.82 K", "result": "79.9 ± 1", "unit": "kPa"}, {"measurement": "vapor or sublimation pressure", "setting": "332.69 K", "result": "114.5 ± 1.1", "unit": "kPa"}, {"measurement": "vapor or sublimation pressure", "setting": "342.88 K", "result": "162 ± 1.1", "unit": "kPa"}, {"measurement": "vapor or sublimation pressure", "setting": "352.74 K", "result": "221.2 ± 1.2", "unit": "kPa"}, {"measurement": "vapor or sublimation pressure", "setting": "362.7 K", "result": "296.8 ± 1.3", "unit": "kPa"}, {"measurement": "vapor or sublimation pressure", "setting": "372.69 K", "result": "391.4 ± 1.5", "unit": "kPa"}, {"measurement": "vapor or sublimation pressure", "setting": "382.81 K", "result": "510.6 ± 1.8", "unit": "kPa"}, {"measurement": "vapor or sublimation pressure", "setting": "392.83 K", "result": "651.7 ± 2.1", "unit": "kPa"}, {"measurement": "vapor or sublimation pressure", "setting": "402.83 K", "result": "821.2 ± 2.6", "unit": "kPa"}, {"measurement": "vapor or sublimation pressure", "setting": "413.9 K", "result": "1046.2 ± 3.3", "unit": "kPa"}, {"measurement": "vapor or sublimation pressure", "setting": "422.92 K", "result": "1260.9 ± 3.9", "unit": "kPa"}, {"measurement": "vapor or sublimation pressure", "setting": "432.91 K", "result": "1536.4 ± 4.8", "unit": "kPa"}, {"measurement": "vapor or sublimation pressure", "setting": "442.98 K", "result": "1859.3 ± 5.8", "unit": "kPa"}, {"measurement": "vapor or sublimation pressure", "setting": "452.95 K", "result": "2231 ± 6.9", "unit": "kPa"}, {"measurement": "vapor or sublimation pressure", "setting": "462.99 K", "result": "2668.5 ± 8.3", "unit": "kPa"}, {"measurement": "vapor or sublimation pressure", "setting": "463.89 K", "result": "2713.3 ± 8.4", "unit": "kPa"}, {"measurement": "vapor or sublimation pressure", "setting": "463.94 K", "result": "2715.8 ± 8.4", "unit": "kPa"}, {"measurement": "Critical density", "result": "541 ± 2", "unit": "kg/m3"}, {"measurement": "Critical pressure", "result": "2713 ± 4", "unit": "kPa"}, {"measurement": "Critical temperature", "result": "463.89 ± 0.07", "unit": "K"}]}
{"compound": "FC(F)COC(F)(F)C(F)F", "note": "[1,1,2,2-tetrafluoro-2-(2,2-difluoroethoxy)ethane]", "values": [{"measurement": "vapor or sublimation pressure", "setting": "300.91 K", "result": "12.8 ± 1", "unit": "kPa"}, {"measurement": "vapor or sublimation pressure", "setting": "322.65 K", "result": "33.9 ± 1", "unit": "kPa"}, {"measurement": "vapor or sublimation pressure", "setting": "332.67 K", "result": "50.8 ± 1", "unit": "kPa"}, {"measurement": "vapor or sublimation pressure", "setting": "342.69 K", "result": "75 ± 1", "unit": "kPa"}, {"measurement": "vapor or sublimation pressure", "setting": "352.73 K", "result": "106.1 ± 1.1", "unit": "kPa"}, {"measurement": "vapor or sublimation pressure", "setting": "362.73 K", "result": "147.5 ± 1.1", "unit": "kPa"}, {"measurement": "vapor or sublimation pressure", "setting": "372.78 K", "result": "202.5 ± 1.2", "unit": "kPa"}, {"measurement": "vapor or sublimation pressure", "setting": "382.8 K", "result": "268.1 ± 1.3", "unit": "kPa"}, {"measurement": "vapor or sublimation pressure", "setting": "392.83 K", "result": "351.4 ± 1.4", "unit": "kPa"}, {"measurement": "vapor or sublimation pressure", "setting": "402.87 K", "result": "453.5 ± 1.6", "unit": "kPa"}, {"measurement": "vapor or sublimation pressure", "setting": "412.89 K", "result": "576.7 ± 1.9", "unit": "kPa"}, {"measurement": "vapor or sublimation pressure", "setting": "422.92 K", "result": "723.9 ± 2.3", "unit": "kPa"}, {"measurement": "vapor or sublimation pressure", "setting": "432.95 K", "result": "898.2 ± 2.8", "unit": "kPa"}, {"measurement": "vapor or sublimation pressure", "setting": "442.97 K", "result": "1102.4 ± 3.4", "unit": "kPa"}, {"measurement": "vapor or sublimation pressure", "setting": "453 K", "result": "1341.6 ± 4.2", "unit": "kPa"}, {"measurement": "vapor or sublimation pressure", "setting": "463.02 K", "result": "1615.4 ± 5", "unit": "kPa"}, {"measurement": "vapor or sublimation pressure", "setting": "473.05 K", "result": "1931 ± 6", "unit": "kPa"}, {"measurement": "vapor or sublimation pressure", "setting": "482.09 K", "result": "2256.7 ± 7", "unit": "kPa"}, {"measurement": "vapor or sublimation pressure", "setting": "491.9 K", "result": "2658.1 ± 8.3", "unit": "kPa"}, {"measurement": "vapor or sublimation pressure", "setting": "497.81 K", "result": "2932.7 ± 9.1", "unit": "kPa"}, {"measurement": "vapor or sublimation pressure", "setting": "501.3 K", "result": "3101.6 ± 9.7", "unit": "kPa"}, {"measurement": "Critical density", "result": "520 ± 2", "unit": "kg/m3"}, {"measurement": "Critical pressure", "result": "3090 ± 9", "unit": "kPa"}, {"measurement": "Critical temperature", "result": "501.08 ± 0.08", "unit": "K"}]}
